Peptide text beside a SMILES is read from it.
Legend:
[1] = molecular target: T1, angiotensin-converting enzyme (ACE) (Homo sapiens, UniProt P12821); test: ACE-inhibitory activity, ACE Kit-WST (Dojindo); format: biochemical; details: peptide 0.01-1000 µM, 37 °C 1 h, absorbance 450 nm, triplicate, read-out: IC50 (ACE inhibition)
T1 construct: purchased Dojindo Laboratories, Kumamoto, Japan
Method: The ACE-inhibitory activity of the peptides was evaluated in vitro using the Dojindo assay kit, following the same procedure as described in our previous study. […] Captopril was used as a positive control to validate the assay system. To assess the stability of the peptides under simulated gastrointestinal (GI) conditions, a two-step enzymatic hydrolysis was conducted. The ACE-inhibitory activity of the peptides was measured both before and after digestion (Figure 1B,C).
The ACE-inhibitory activity of the peptides was assessed using the ACE Kit-WST (Dojindo Laboratories, Kumamoto, Japan) following the manufacturer’s protocol. Both peptides were dissolved in distilled water, and serial dilutions were prepared at concentrations of 0.01, 0.10, 1, 10, 100, and 1000 µM. Captopril was used as the positive control. For the assay, 20 µL of each sample solution was added to the designated wells, including the sample, blank 1, and blank 2 wells. Subsequently, 20 µL of substrate buffer was added to all wells. […] Absorbance was measured at 450 nm using a microplate reader. ACE-inhibitory activity was calculated using the following equation:ACE inhibition (%) = (Ablank1 − Asample)/(Ablank1 − Ablank2) × 100 where Ablank1 is the absorbance of the control (without inhibitor), Ablank2 is the absorbance of the reagent alone, and Asample is the absorbance of the peptide-treated sample.

[2] = tested on: pepsin, trypsin and chymotrypsin; test: Resistance to simulated GI digestion assay; format: in vitro ADME; details: peptide 100 and 200 µM; pepsin 0.01% pH 2.0, 37 °C, 3 h, then trypsin and chymotrypsin each 0.01% pH 7.5, 3 h; read-out ACE-inhibitory activity; triplicate
Method: The stability of the synthesized peptides against gastrointestinal proteases was evaluated using a slightly modified method based on Dong et al. (2024). Peptide solutions at concentrations of 100 and 200 µM were sequentially subjected to enzymatic digestion. Initially, the peptides were incubated with pepsin (0.01%, pH 2.0) at 37 °C for 3 h. This was followed by a second digestion step with trypsin and chymotrypsin (each at 0.01%, pH 7.5) for an additional 3 h under the same temperature conditions. To terminate enzymatic activity, the reaction mixtures were boiled for 10 min. The samples were then centrifuged at 8000× g for 15 min, and the resulting supernatants were collected. The ACE-inhibitory activity of the digested peptide solutions was subsequently analyzed to assess their enzymatic stability.

[3] = molecular target: ACE (Homo sapiens, UniProt P12821); test: Lineweaver–Burk plot and secondary plot (ACE inhibition kinetics); format: biochemical; details: secondary plot from Lineweaver–Burk plots; substrate HHL 0.625 to 20 mM
Method: The inhibition pattern of the peptides against ACE was analyzed using Lineweaver–Burk plots. ACE activity was measured at varying concentrations of each peptide (IGDEPRHQYL: 0, 5, and 10 µM; IVGRPLANG: 0, 20, and 40 µM) in the presence of different concentrations of the substrate hippuryl-histidyl-leucine (HHL), ranging from 0.625 to 20 mM. The Michaelis constant (Km) and maximum reaction velocity (Vmax) were calculated from the slope and y-intercept of the Lineweaver–Burk plots. Additionally, secondary plots were generated to determine the inhibition constant (Ki) values for each peptide based on the derived Km and Vmax values.

ACE, sequence (P12821 30-1306, species assumed): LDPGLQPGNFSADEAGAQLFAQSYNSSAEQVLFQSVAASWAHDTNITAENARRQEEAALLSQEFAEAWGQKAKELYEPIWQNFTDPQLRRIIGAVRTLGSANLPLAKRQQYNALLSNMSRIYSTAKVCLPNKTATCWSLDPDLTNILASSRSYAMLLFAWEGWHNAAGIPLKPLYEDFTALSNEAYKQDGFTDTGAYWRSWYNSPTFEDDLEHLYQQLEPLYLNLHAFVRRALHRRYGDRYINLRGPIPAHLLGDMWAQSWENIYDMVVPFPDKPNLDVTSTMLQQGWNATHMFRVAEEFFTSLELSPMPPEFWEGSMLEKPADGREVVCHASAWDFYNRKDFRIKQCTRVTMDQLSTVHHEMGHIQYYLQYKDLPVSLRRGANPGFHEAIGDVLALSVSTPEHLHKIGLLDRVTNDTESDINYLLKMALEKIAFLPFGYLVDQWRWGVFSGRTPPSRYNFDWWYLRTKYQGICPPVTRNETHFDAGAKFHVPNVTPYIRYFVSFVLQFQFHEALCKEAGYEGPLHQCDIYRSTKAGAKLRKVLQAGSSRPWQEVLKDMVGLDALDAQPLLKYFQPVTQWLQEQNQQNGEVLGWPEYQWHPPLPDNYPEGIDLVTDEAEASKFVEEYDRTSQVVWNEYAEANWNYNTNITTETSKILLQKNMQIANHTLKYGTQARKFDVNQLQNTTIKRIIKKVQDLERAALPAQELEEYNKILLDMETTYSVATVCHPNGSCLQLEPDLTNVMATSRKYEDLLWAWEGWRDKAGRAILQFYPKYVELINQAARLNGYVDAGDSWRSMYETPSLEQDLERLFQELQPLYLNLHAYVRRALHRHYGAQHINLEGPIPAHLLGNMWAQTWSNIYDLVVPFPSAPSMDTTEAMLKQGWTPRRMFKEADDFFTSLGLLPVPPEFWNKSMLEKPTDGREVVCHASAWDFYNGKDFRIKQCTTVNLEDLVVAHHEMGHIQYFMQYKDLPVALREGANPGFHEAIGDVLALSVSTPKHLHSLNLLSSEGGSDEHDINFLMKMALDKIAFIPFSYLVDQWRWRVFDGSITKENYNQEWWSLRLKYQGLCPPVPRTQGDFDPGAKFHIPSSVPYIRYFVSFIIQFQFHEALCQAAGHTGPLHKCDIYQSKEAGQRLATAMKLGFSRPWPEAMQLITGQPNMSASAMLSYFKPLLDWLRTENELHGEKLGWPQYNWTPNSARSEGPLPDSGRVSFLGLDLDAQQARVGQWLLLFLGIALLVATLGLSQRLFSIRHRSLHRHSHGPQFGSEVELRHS
T1 sequence (P12821 30-1306, species assumed): as above

| Compound | IC50 [1] [µM] | ACE-inhibitory activity before and after simulated GI digestion [2] | Ki [3] [µM] |
| --- | --- | --- | --- |
| CC[C@H](C)[C@H](N)C(=O)N[C@H](C(=O)NCC(=O)N[C@@H](CCCNC(=N)N)C(=O)N1CCC[C@H]1C(=O)N[C@@H](CC(C)C)C(=O)N[C@@H](C)C(=O)N[C@@H](CC(N)=O)C(=O)NCC(=O)O)C(C)C [IVGRPLANG] (H-IVGRPLANG-OH) | 23.8 | retained their ACE-inhibitory activity | 51.4 |
| CC[C@H](C)[C@H](N)C(=O)NCC(=O)N[C@@H](CC(=O)O)C(=O)N[C@@H](CCC(=O)O)C(=O)N1CCC[C@H]1C(=O)N[C@@H](CCCNC(=N)N)C(=O)N[C@@H](Cc1c[nH]cn1)C(=O)N[C@@H](CCC(N)=O)C(=O)N[C@@H](Cc1ccc(O)cc1)C(=O)N[C@@H](CC(C)C)C(=O)O [IGDEPRHQYL] (H-IGDEPRHQYL-OH) | 5.68 | retained their ACE-inhibitory activity | 5.46 |

Source: article PMC12298423, “Characterization of Novel ACE-Inhibitory Peptides from Nemopilema nomurai Jellyfish Venom Hydrolysate: In Vitro and In Silico Approaches” (Marine Drugs, 2025)
